# Results taken from paper PMC9403976, “Elucidating the path to Plasmodium prolyl-tRNA synthetase inhibitors that overcome halofuginone resistance” (Nature Communications, 2022).
# “And” between values parts separate entries of the source, which are not always exact repeats. Equal entries are not always repeated. Where two headings read alike, the source gives them in different places.
# Assays:
# P. falciparum Dd2-2D4 = assay: P. falciparum asexual blood stage (ABS) growth assay, SYBR Green, 72 h, wild-type parasites; type: cell-based, Plasmodium falciparum
# PfcProRS = biological target: T1, PfcProRS (Plasmodium falciparum, UniProt Q8I5R7); type: binding; details: single replicates
# T1 construct: made in house; host or cells: E. coli SoluBL-21
# T1 sequence (Q8I5R7 249-746): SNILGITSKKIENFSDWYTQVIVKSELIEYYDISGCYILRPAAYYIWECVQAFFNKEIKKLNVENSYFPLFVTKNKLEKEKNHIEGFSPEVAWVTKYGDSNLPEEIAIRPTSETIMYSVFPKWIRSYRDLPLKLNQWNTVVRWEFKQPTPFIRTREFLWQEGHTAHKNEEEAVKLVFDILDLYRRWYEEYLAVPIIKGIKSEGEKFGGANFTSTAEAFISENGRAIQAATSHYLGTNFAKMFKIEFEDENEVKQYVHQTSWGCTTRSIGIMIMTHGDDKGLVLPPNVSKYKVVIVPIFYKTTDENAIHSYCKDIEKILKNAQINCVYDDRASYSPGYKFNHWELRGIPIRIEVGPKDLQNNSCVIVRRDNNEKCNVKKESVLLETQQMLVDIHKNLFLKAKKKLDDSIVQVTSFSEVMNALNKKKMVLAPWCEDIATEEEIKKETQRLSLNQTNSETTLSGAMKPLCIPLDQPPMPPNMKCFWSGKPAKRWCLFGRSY
# HsProRS = HsProRS (Homo sapiens, UniProt P07814); assay: TR-FRET ligand displacement assay with tracer MAT379 (CoraFluor-1-Halo and anti-His6 antibody formats); type: binding; design: made in house; host or cells: E. coli SoluBL-21; details: for TR-FRET dose-response, normalized signal (SI Fig 11): individual replicates
# Sequence of HsProRS (P07814 996-1512): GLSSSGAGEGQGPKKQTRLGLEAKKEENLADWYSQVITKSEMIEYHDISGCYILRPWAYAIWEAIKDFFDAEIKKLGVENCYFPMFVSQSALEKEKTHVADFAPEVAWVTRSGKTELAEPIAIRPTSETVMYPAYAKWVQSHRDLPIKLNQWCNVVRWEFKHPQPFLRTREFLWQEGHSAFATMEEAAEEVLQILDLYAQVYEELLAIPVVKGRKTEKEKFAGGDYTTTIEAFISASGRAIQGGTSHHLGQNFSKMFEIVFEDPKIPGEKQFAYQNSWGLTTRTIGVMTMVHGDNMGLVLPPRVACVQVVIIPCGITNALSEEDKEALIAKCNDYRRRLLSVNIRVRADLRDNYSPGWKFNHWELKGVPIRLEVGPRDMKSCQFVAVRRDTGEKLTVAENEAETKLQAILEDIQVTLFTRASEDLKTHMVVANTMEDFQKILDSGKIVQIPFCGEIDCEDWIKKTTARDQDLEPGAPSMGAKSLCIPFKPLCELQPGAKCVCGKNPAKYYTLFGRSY
smiles,measurement,setting,value
O=C(O)CCCC(=O)Nc1nccnc1C(=O)NC1Cc2ccccc2C1 [compound 22],dose-response value per replicate (SI Fig 2g),P. falciparum Dd2-2D4; Log[inhibitor] (M) -7.408,111
same,EC50,"P. falciparum Dd2-2D4; Plasmodium falciparum, DD2, SI Fig 16b, values on -log scale, read-out: ABS - Dd2-2D4 (converted)",12.3 µM
same,"dose-response signal (normalized), SI Fig 8",PfcProRS; Log[inhibitor] (M) -5.000,9.06E-01 and 9.64E-01 and 8.26E-01
same,"dose-response signal (normalized), SI Fig 8",PfcProRS; Log[inhibitor] (M) -5.301,1.01E+00 (2×) and 9.72E-01
same,"dose-response signal (normalized), SI Fig 8",PfcProRS; Log[inhibitor] (M) -5.601,9.26E-01 and 1.02E+00 and 9.22E-01
same,"dose-response signal (normalized), SI Fig 8",PfcProRS; Log[inhibitor] (M) -5.904,9.72E-01 and 1.05E+00 and 1.09E+00
same,"dose-response signal (normalized), SI Fig 8",PfcProRS; Log[inhibitor] (M) -6.208,1.07E+00 (2×) and 9.87E-01
same,"dose-response signal (normalized), SI Fig 8",PfcProRS; Log[inhibitor] (M) -6.509,1.07E+00 and 1.14E+00 and 1.02E+00
same,"dose-response signal (normalized), SI Fig 8",PfcProRS; Log[inhibitor] (M) -6.796,9.89E-01 and 1.07E+00 and 9.33E-01
same,"dose-response signal (normalized), SI Fig 8",PfcProRS; Log[inhibitor] (M) -7.108,1.06E+00 and 1.00E+00 and 1.02E+00
same,"dose-response signal (normalized), SI Fig 8",PfcProRS; Log[inhibitor] (M) -7.409,9.62E-01 and 1.08E+00 and 9.97E-01
same,"dose-response signal (normalized), SI Fig 8",PfcProRS; Log[inhibitor] (M) -7.710,1.02E+00 and 9.90E-01 and 1.13E+00
same,"dose-response signal (normalized), SI Fig 8",PfcProRS; Log[inhibitor] (M) -8.000,1.05E+00 (2×) and 1.10E+00
same,"dose-response signal (normalized), SI Fig 8",PfcProRS; Log[inhibitor] (M) -8.301,1.05E+00 and 1.11E+00 and 1.20E+00
same,"dose-response signal (normalized), SI Fig 8",PfcProRS; Log[inhibitor] (M) -8.602,9.67E-01 and 1.09E+00 and 1.08E+00
same,"dose-response signal (normalized), SI Fig 8",PfcProRS; Log[inhibitor] (M) -9.000,9.27E-01 and 1.05E+00 and 1.07E+00
same,"dose-response signal (normalized), SI Fig 8",PfcProRS; Log[inhibitor] (M) -9.301,1.08E+00 and 1.15E+00 and 9.88E-01
same,IC50,HsProRS,> 10 µM
same,"HsProRS % signal at 10 μM, + 100 μM proline","HsProRS; + 100 μM proline, 10 μM",79.2%
same,"normalized TR-FRET ligand displacement signal, dose-response replicates (SI Fig 6)",HsProRS; Log[inhibitor] (M) -5.000,6.88E-01 and 7.76E-01 and 7.44E-01
same,"TR-FRET dose-response, normalized signal (SI Fig 11)",HsProRS; Log[inhibitor] (M) -5.000,7.43E-01 and 6.59E-01 and 7.38E-01
same,"normalized TR-FRET ligand displacement signal, dose-response replicates (SI Fig 6)",HsProRS; Log[inhibitor] (M) -5.301,8.82E-01 (2×) and 7.80E-01
same,"TR-FRET dose-response, normalized signal (SI Fig 11)",HsProRS; Log[inhibitor] (M) -5.301,8.33E-01 and 8.41E-01 and 8.52E-01
same,"normalized TR-FRET ligand displacement signal, dose-response replicates (SI Fig 6)",HsProRS; Log[inhibitor] (M) -5.601,8.80E-01 and 9.45E-01 and 8.65E-01
same,"TR-FRET dose-response, normalized signal (SI Fig 11)",HsProRS; Log[inhibitor] (M) -5.601,9.39E-01 and 8.79E-01 and 9.13E-01
same,"normalized TR-FRET ligand displacement signal, dose-response replicates (SI Fig 6)",HsProRS; Log[inhibitor] (M) -5.904,1.02E+00 and 1.06E+00 and 9.13E-01
same,"TR-FRET dose-response, normalized signal (SI Fig 11)",HsProRS; Log[inhibitor] (M) -5.904,9.47E-01 and 9.57E-01 and 9.01E-01
same,"normalized TR-FRET ligand displacement signal, dose-response replicates (SI Fig 6)",HsProRS; Log[inhibitor] (M) -6.208,1.04E+00 and 1.02E+00 and 9.07E-01
same,"TR-FRET dose-response, normalized signal (SI Fig 11)",HsProRS; Log[inhibitor] (M) -6.208,1.02E+00 and 9.48E-01 and 9.47E-01
same,"normalized TR-FRET ligand displacement signal, dose-response replicates (SI Fig 6)",HsProRS; Log[inhibitor] (M) -6.509,8.91E-01 and 9.55E-01 and 1.01E+00
same,"TR-FRET dose-response, normalized signal (SI Fig 11)",HsProRS; Log[inhibitor] (M) -6.509,9.53E-01 and 9.49E-01 and 9.29E-01
same,"normalized TR-FRET ligand displacement signal, dose-response replicates (SI Fig 6)",HsProRS; Log[inhibitor] (M) -6.796,1.03E+00 and 1.02E+00 and 9.73E-01
same,"TR-FRET dose-response, normalized signal (SI Fig 11)",HsProRS; Log[inhibitor] (M) -6.796,9.39E-01 and 9.96E-01 and 9.21E-01
same,"normalized TR-FRET ligand displacement signal, dose-response replicates (SI Fig 6)",HsProRS; Log[inhibitor] (M) -7.108,1.09E+00 and 9.83E-01 and 1.08E+00
same,"TR-FRET dose-response, normalized signal (SI Fig 11)",HsProRS; Log[inhibitor] (M) -7.108,9.39E-01 and 9.94E-01 and 9.05E-01
same,"normalized TR-FRET ligand displacement signal, dose-response replicates (SI Fig 6)",HsProRS; Log[inhibitor] (M) -7.409,9.62E-01 and 1.05E+00 and 9.54E-01
same,"TR-FRET dose-response, normalized signal (SI Fig 11)",HsProRS; Log[inhibitor] (M) -7.409,9.56E-01 and 9.55E-01 and 9.01E-01
same,"normalized TR-FRET ligand displacement signal, dose-response replicates (SI Fig 6)",HsProRS; Log[inhibitor] (M) -7.710,9.45E-01 and 1.01E+00 and 9.79E-01
same,"TR-FRET dose-response, normalized signal (SI Fig 11)",HsProRS; Log[inhibitor] (M) -7.710,9.86E-01 and 9.70E-01 and 9.64E-01
same,"normalized TR-FRET ligand displacement signal, dose-response replicates (SI Fig 6)",HsProRS; Log[inhibitor] (M) -8.000,1.07E+00 and 1.06E+00 and 9.51E-01
same,"TR-FRET dose-response, normalized signal (SI Fig 11)",HsProRS; Log[inhibitor] (M) -8.000,9.84E-01 and 9.81E-01 and 9.67E-01
same,"normalized TR-FRET ligand displacement signal, dose-response replicates (SI Fig 6)",HsProRS; Log[inhibitor] (M) -8.301,9.49E-01 and 8.91E-01 and 8.92E-01
same,"TR-FRET dose-response, normalized signal (SI Fig 11)",HsProRS; Log[inhibitor] (M) -8.301,9.40E-01 and 1.01E+00 and 9.29E-01
same,"normalized TR-FRET ligand displacement signal, dose-response replicates (SI Fig 6)",HsProRS; Log[inhibitor] (M) -8.602,9.06E-01 and 1.02E+00 and 1.07E+00
same,"TR-FRET dose-response, normalized signal (SI Fig 11)",HsProRS; Log[inhibitor] (M) -8.602,9.70E-01 and 9.81E-01 and 9.77E-01
same,"normalized TR-FRET ligand displacement signal, dose-response replicates (SI Fig 6)",HsProRS; Log[inhibitor] (M) -9.000,1.02E+00 and 8.38E-01 and 9.71E-01
same,"TR-FRET dose-response, normalized signal (SI Fig 11)",HsProRS; Log[inhibitor] (M) -9.000,1.01E+00 and 9.79E-01 and 9.47E-01
same,"normalized TR-FRET ligand displacement signal, dose-response replicates (SI Fig 6)",HsProRS; Log[inhibitor] (M) -9.301,9.40E-01 and 9.94E-01 and 9.82E-01
same,"TR-FRET dose-response, normalized signal (SI Fig 11)",HsProRS; Log[inhibitor] (M) -9.301,9.53E-01 and 9.63E-01 and 8.99E-01
same,HsProRS % signal at 10 μM,"HsProRS; no added proline/ATP (-), 10 μM",71.3%
same,IC50,"HsProRS; read-out: HsProRS IC50 + 100 μM proline, + 100 μM proline",> 10 µM
